According to US9301911B2, “Composition comprising tauroursodeoxycholic acid” (priority 2012, dated 2016):

Tests used:
collagenase = test: Inhibitory activity on collagenase (azocoll assay); type: biochemical; conditions: for Comparative inhibitory activity: [collagenase-inhibitory percentage of TUDCA / that of UDCA]*100
Experimental: The inhibitory activities of tauroursodeoxycholic acid (TUDCA) and ursodeoxycholic acid (UDCA) on collagenase were evaluated according to an azocoll assay method. Azocoll, Azo dye-impregnated collagen, is not dissolved in Tris-buffer. […] Therefore, by reacting said test materials with azocoll and then measuring the respective absorbance, the inhibitory activities of said materials on collagenase can be determined.
2% Azocoll solution (200 μl) and a buffer solution (0.01 M Tris-HCl, 1 mM CaCl2, pH 7.8) (150 μl) were respectively added to the 6 test tubes to obtain the solutions (Solution A1 to A6). Each solution (100 μl) obtained by dissolving TUDCA or UDCA in 10% ethanol in various concentrations was added to the solutions A1 to A6, so as to obtain the final concentrations of 1.600 w/v %, 0.533 w/v %, and 0.178 w/v %, respectively. Collagenase (50 μl) having 100 ppm concentration was added to the respective test mixture, which was then stirred in a 37° C. incubator for 18 hours. Each test tube was centrifuged for 5 minutes. The supernatant was separated from each test tube and then added to a 96-well plate. The absorbance at 540 nm was measured by a spectrophotometer and then the activity of the test group was determined from the standard activity curve. The standard activity curve was separately prepared by adding 10, 25, 50, and 100 μl of collagenase to the azocoll solution.
The collagenase-inhibitory ratio of TUDCA to the collagenase-inhibitory ratio of UDCA was determined according to the following formula and the results thereof are shown in Table 1. Comparative inhibitory activity=[Collagenase-inhibitory percentage of TUDCA/Collagenase-inhibitory percentage of UDCA]*100

S. mutans = test: Antimicrobial activity against S. mutans (growth inhibition, O.D. 600 nm); type: cell-based, Streptococcus mutans
Experimental: We evaluated antimicrobial activities of TUDCA (PRODOTTI CHIMICI E ALIMENTARI S.p.A. Co., Italy), bamboo salt, xanthorrhiza oil (curcuma xanthorrhiza oil having 22-35% of xanthorrhizol, ‘Curcuma Xanthorrhiza Essential Oil’ extracted from Curcuma Xanthorrhiza Root, Daewoong Bio Inc.), and a mixture thereof, against S. Mutans. Briefly, to each well of a 96-well plate, were added 100 μl of BHI broth (Brain Heart Infusion broth, Sigma-Aldrich) and each test material in two times higher concentration than the concentration shown in the following Table 2. S. mutans was cultured in BHI broth (Brain Heart Infusion broth, Sigma-Aldrich) at 35° C. for 24 hours. Absorbance at 600 nm of the S. mutans-containing culture medium was adjusted to 0.063 to 0.12 and then the resulting culture medium was diluted to 1/500. The diluted S. Mutans-containing culture medium (100 μl) was added to each well of the 96-well plate. The 96-well plate was incubated at 35° C. for 24 hours, followed by measuring the O.D. values at 600 nm with a spectrophotometer for obtaining the respective growth inhibition percentage.
Antimicrobial activities against S. mutans were evaluated using TUDCA in a relatively low concentration. Using the same kinds of TUDCA, bamboo salt, and xanthorrhiza oil, the evaluations of antimicrobial activity were carried out in the same manners as in Example 2.

Comparative inhibitory activity (collagenase; test material 0.178 w/v %): 264.75% | Comparative inhibitory activity (collagenase; test material 0.533 w/v %): 252.56% | Comparative inhibitory activity (collagenase; test material 1.600 w/v %): 227.17%
SMILES: C[C@H](CCC(=O)NCCS(=O)(=O)O)[C@H]1CC[C@H]2[C@@H]3[C@@H](O)C[C@@H]4C[C@H](O)CC[C@]4(C)[C@H]3CC[C@]12C [TUDCA, tauroursodeoxycholic acid]
inhibitory activity against collagenase in comparison with UDCA (collagenase; at the same concentration, in comparison with UDCA): about two times more strong inhibitory activity against collagenase | Growth inhibition (S. mutans; Table 2, TUDCA 0.5 w/v %): 38 ± 16% | Growth inhibition (S. mutans; Table 2, TUDCA 1 w/v %): 51 ± 13% | Growth inhibition (S. mutans; Table 3, TUDCA 0.01 w/v %): 13% | growth-inhibition activity against S. mutans (in words) (S. mutans; summary of Table 2): effective growth-inhibition activity
